How the values were obtained:
Assay type in all cases: cell-based, human
[1] = system: peripheral blood lymphocytes (PBL); assay: PHA-induced cell clumping of PBL; details: Example 1, PBL of donor GR283; compound 5, 15, 50 μg/ml; 5 μg/ml PHA; 72 hours
Procedure: Whole blood was drawn from GR283, a human volunteer with known allergies, into a glass vacutainer tube containing no anticoagulant. This blood was allowed to clot, and the serum was removed by centrifugation and then heat inactivated by placing it in a water bath at 56° C. for 30 minutes. Whole blood from GR283 was also drawn into a glass vacutainer tube containing heparin and used for peripheral blood lymphocytes (PBL) isolation as follows. Whole blood was layered over room temperature Histopaque 1077 solution and centrifuged at 2000 rpm for 15 minutes at room temperature. Cells at the plasma-Histopaque interface were then removed and washed with culture medium (IMDM medium with 10% heat-inactivated GR283 serum plus 1% penicillin/streptomycin) at 37° C.
The compound of formula II (see above) and methylphenidate (both obtained from Dr. Jeffrey D. Winkler, University of Pennsylvania, Philadelphia, Pa.) in culture medium were added to wells of a 96-well plate to give final concentrations of 5 μg/ml, 15 μg/ml and 50 μg/ml of the compound of formula II and of methylphenidate. […] Then, GR283's PBL in culture medium were added to the wells to give a final concentration of 150,000 cells per well, and the plates were incubated at 37° C., 5% CO2 for 24 hours. […]

[2] = system: TNFα; assay: TNFα release by PHA-stimulated PBL (ELISA); details: Example 3, GR191 PBL, Cpd II 15 and 50 μg/ml, Dex 10 μM, 72 hours, FIG. 7
Procedure: After this incubation, PHA was added to give a final concentration of 5 μg/ml, and the cells were incubated for an additional 72 hours at 37° C., 5% CO2. All cultures were performed in triplicate. Cells were then removed by centrifugation at 1000 rpm for 10 minutes.
The TNFα ELISA was performed as described in Example 2 using matched pair antibodies from Pierce Endogen (2 μg/ml for the coating antibody and 250 ng/ml for the second antibody).

[3] = system: erythropoietin (EPO); assay: Erythropoietin (EPO) release from HepG2 cells (ELISA); details: 24 hours
Procedure: HepG2 is a human hepatic cancer cell line, which was obtained from ATCC. HepG2 cells were grown to confluence in 25 cm^2 flasks in IMDM medium containing 10% FCS. Then, the cells were trypsinized as follows. The medium in each flask was aspirated and replaced with 5 ml of 0.025% trypsin/EDTA (Cambrex). The cells were monitored on a microscope until they no longer adhered to the flasks. Then, 5 ml of trypsin neutralizing solution (TNS) (Cambrex) were added to each flask to stop the reaction. The cell suspension was centrifuged at 1000 rpm for 10 minutes, and the supernatants were aspirated. The cells were reconstituted in fresh medium and counted. Then, 4 ml of the cell suspension in medium containing at 1.22×10^6 cells/ml were mixed with an additional 1 ml of medium. Next, 0.5 ml/well of the resulting cell suspension was added to wells in a 24-well culture plate (about 500,000 cells/well). The cells were treated as indicated in Table 5 below and incubated for 24 hours at 37° C., with or without 5% CO2. The supernatants were removed from the wells and centrifuged to remove debris. Next, the supernatants were analyzed for erythropoietin (EPO) production. EPO was measured by ELISA using a kit obtained from R & D Systems, Minneapolis, Minn. (catalog no. DE900) following the manufacturer's instructions.

[4] = system: NFκB; assay: Activated NFκB in VEGF-treated HUVECs (TransAM assay); details: Cpd II at 15 μg/ml and 5 μg/ml
Procedure: Passage 5 HUVECs, human source lot number 8750, were grown to confluence in 25 cm^2 flasks in EGM-2 medium. The following additives were added to the flasks (total volume of 5 ml/flask) in EGM-2 medium containing 2% FCS, GA1000 (gentamycin), heparin and ascorbic acid (all from Cambrex): 1 μg/ml of the compound of formula II (Cpd II); 5 μg/ml Cpd II; 15 μg/ml of Cpd II; 15 μg/ml methylphenidate (MP); or 10 μM LY 294002. The flasks were incubated overnight at 37° C., 5% CO2. After this incubation, VEGF was added to give a final concentration 10 ng/ml, and the flasks were incubated for an additional 30 minutes.
Then, the amount of NFκB was determined using a TransAM™ NFκB p65/NFκB p50 Transcription Factor Assay Kit and a Nuclear Extract Kit from Active Motif North America, Carlsbad, Calif., according to the manufacturer's instructions. Briefly, a nuclear extract of the cells was prepared using the Nuclear Extract Kit. Then, the nuclear extract was added to the wells of the 96-well plate of the TransAM™ kit. […] Then, an antibody directed against the NFκB p65 or p50 subunit was added, and the NFκB complex bound to the oligonucleotide was detected. A secondary antibody conjugated to horseradish peroxidase (HRP) was next added to provide a colorimetric readout that was quantified by spectrophotometry (measurement at 450 nm).

COC(=O)C(c1ccc(-c2ccccc2)cc1)C1CCCCN1 (centres unmarked) [Cpd II]
amount of cell clumping induced by PHA [1]: reduced the amount of cell clumping induced by 5 μg/ml PHA in a dose-dependent manner
release of TNFα from PHA-stimulated PBL [2]: significantly inhibited the release of TNFα
Mean Units/ml EPO ([3]; HepG2, hypoxia (5% CO2), Cpd II 15 μg/ml, LY 294002 25 μM, hypoxia alone 108.39 ± 2.81): 71.60 ± 2.01 Units/ml
release of EPO from the HepG2 cells ([3]; HepG2, hypoxia, 15 μg/ml): significantly inhibited the release of EPO
amount of activated NFκB [4]: reduced the amount of activated NFκB back to basal levels
